Measurements as given in ChEMBL document CHEMBL1201862, “PubChem BioAssay data set” (2004).
Active and inactive are the calls of the source. For most assays here, no stated cut-off is given here; in the data, actives have a measured EC50 and inactives only a lower limit.

How the values were obtained:
[1] = NIH3T3 cell viability loss – ATP luminescence, mouse fibroblasts, counter-screen, dose response (AID 2010); format: functional, cell-based;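 further: cells exposed to compound for about 90 hours before reading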
[2] = Trypanosoma cruzi growth suppression in host cells – NIH3T3 host cells, beta-gal luminescence, confirmation (AID 2044); format: functional, cell-based;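 further: intracellular parasites grown in NIH/3T3 mouse fibroblasts as host cells; luminescent beta-galactosidase reporter signal from transgenic T. cruzi replicating inside host cells; inhibitors lower the luminescence signal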
Cytochrome P450 3A4 = Cytochrome P450 3A4 (Homo sapiens, UniProt P08684);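 further: CYP3A4 tested as one member of a cytochrome P450 panel screen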
Cytochrome P450 1A2 = biological target: T1, Cytochrome P450 1A2 (Homo sapiens, UniProt P05177);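 further: PubChem cytochrome P450 panel assay, CYP1A2 panel member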
T1 sequence (P05177 whole entry): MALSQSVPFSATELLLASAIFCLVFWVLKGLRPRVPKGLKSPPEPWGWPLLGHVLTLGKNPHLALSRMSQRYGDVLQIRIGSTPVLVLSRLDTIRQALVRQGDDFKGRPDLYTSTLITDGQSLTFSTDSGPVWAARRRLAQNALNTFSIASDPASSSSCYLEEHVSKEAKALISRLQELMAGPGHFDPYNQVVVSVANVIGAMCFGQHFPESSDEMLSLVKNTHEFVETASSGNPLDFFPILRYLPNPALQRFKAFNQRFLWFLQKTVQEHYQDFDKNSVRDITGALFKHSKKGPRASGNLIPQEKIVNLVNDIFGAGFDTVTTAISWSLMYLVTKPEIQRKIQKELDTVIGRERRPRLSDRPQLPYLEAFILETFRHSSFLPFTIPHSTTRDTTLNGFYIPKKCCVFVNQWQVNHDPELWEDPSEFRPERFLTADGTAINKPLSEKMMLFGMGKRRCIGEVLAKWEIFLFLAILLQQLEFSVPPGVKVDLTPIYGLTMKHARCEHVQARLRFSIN

Cytochrome P450 2C9 = Cytochrome P450 2C9 (Homo sapiens, UniProt P11712)
[3] = system: Streptococcus sp. 'group A'; test: Streptococcus pyogenes SK(-)GAS viability under kanamycin – luminescence, BacTiterGlo, confirmation, counter-screen for streptokinase expression inhibitor project, dose response (AID 1900); format: functional, organism-based
Streptococcus = test: GAS UMAA2166 growth inhibition – luminescence, BacTiterGlo, counter-screen for streptokinase expression inhibitor project, dose response (AID 1915); format: functional, organism-based;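 further: potency for reduction of bacterial viability or growth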

Chain of Cytochrome P450 3A4 (P08684 whole entry): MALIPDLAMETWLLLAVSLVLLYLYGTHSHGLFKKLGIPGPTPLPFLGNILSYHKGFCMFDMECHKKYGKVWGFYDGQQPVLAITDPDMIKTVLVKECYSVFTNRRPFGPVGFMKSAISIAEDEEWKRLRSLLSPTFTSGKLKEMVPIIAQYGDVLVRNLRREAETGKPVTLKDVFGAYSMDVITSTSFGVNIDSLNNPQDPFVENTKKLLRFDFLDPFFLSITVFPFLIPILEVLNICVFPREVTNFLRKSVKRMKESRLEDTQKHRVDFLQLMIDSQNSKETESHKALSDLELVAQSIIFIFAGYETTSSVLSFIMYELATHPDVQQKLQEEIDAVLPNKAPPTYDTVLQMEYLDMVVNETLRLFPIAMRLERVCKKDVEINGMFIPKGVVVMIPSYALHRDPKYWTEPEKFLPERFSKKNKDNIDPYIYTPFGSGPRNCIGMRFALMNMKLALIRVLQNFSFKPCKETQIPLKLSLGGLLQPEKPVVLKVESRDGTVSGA
Chain of Cytochrome P450 2C9 (P11712 whole entry): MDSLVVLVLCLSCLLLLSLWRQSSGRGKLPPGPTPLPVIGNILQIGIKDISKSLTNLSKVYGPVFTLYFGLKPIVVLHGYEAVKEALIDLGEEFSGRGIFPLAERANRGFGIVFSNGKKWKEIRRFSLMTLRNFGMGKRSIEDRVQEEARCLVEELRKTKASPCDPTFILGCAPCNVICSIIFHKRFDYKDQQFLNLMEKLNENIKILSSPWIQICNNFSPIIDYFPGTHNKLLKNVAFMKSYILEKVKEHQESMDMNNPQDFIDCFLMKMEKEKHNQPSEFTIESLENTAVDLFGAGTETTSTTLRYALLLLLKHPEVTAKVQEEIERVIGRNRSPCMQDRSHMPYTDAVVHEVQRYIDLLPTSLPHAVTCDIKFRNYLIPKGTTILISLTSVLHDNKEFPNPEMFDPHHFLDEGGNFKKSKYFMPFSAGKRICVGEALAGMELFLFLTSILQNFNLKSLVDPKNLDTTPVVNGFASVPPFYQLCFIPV

## Cc1nn(Cc2cccc(Oc3ccccc3)c2)c(C)c1NC(=O)NC12CC3CC(CC(C3)C1)C2
[1]
  EC50: > 60 µM (not active)
[2]
  EC50: 1.29 µM (active)

## COCCCNCCCOc1ccc(C(C)(C)c2ccccc2)cc1
[1]
  EC50: > 60 µM (inconclusive)
[2]
  EC50: 0.567 µM (active)

## CCOC(=O)c1nn(-c2ccccc2)c(-c2ccccc2)c1C(=O)c1ccccc1
Cytochrome P450 3A4
  AC50: 15.8 µM (inconclusive)

## CCOC(=O)c1cc2c(ccn2C)n1CC(=O)N1CCCC(C)C1 (centres undefined)
Cytochrome P450 1A2
  AC50: 20 µM (inconclusive)

## O=c1c(-c2cc(F)cc(F)c2)nc2cnc(N3CCOCC3)nc2n1C1CC1
Cytochrome P450 1A2
  AC50: 1 µM (inconclusive)

## O=C(c1ccncc1)N1CCC2(CC1)CCN(c1ncccn1)CC2
Cytochrome P450 1A2
  AC50: 20 µM (inconclusive)

## COC(=O)C[C@@H]1O[C@H]1[C@H](C)[C@@H](OC)C(C)C
Cytochrome P450 2C9
  AC50: 3.16 µM (inconclusive)

## N#CCCn1c(=O)c(-c2cc(F)cc(F)c2)nc2cnc(N3CCOCC3)nc21
Cytochrome P450 1A2
  AC50: 3.16 µM (inconclusive)
Cytochrome P450 3A4
  AC50: 20 µM (inconclusive)

## O=C(NNC(=O)c1ccccc1)C(=O)N1CCCCC1
Cytochrome P450 2C9
  AC50: 0.00562 µM (inconclusive)

## Cc1cc(C)n2nc(-c3ccsc3-n3c(C)ccc3C)cc2n1
[1]
  EC50: > 60 µM (not active)
[2]
  EC50: 2.77 µM (active)

## Cc1ccc2c(c1)N(CCC(=O)NCc1ccc3c(c1)OCO3)C(=O)CO2
Cytochrome P450 2C9
  AC50: 0.00562 µM (inconclusive)

## C/C(Cn1cnc([N+](=O)[O-])n1)=N\NC(=O)c1ccccc1O
[1]
  EC50: > 60 µM (not active)
[2]
  EC50: 1.73 µM (active)

## CCCCNc1c(-c2ccc(SC3CCCCC3)c(OC)c2)nc2ccc(Cl)cn12
[1]
  EC50: > 60 µM (not active)
[2]
  EC50: 1.43 µM (active)

## CCOc1ccc(CN2CCN(Cc3cnc(-c4ccccc4)s3)CC2CCO)cc1 (centres undefined)
[1]
  EC50: > 60 µM (not active)
[2]
  EC50: 0.201 µM (active)

## CCc1ccc(NC(=O)CSc2nc3cc(C(=O)OC)ccc3c(=O)n2Cc2ccco2)cc1
Cytochrome P450 2C9
  AC50: 28.2 µM (inconclusive)
Cytochrome P450 3A4
  AC50: 3.98 µM (inconclusive)

## O=C(Nc1ccccc1)c1ccccc1CC[N+](=O)[O-]
Cytochrome P450 3A4
  AC50: 7.94 µM (inconclusive)

## CC(=O)N(CCCN(C)C)CCC(C)CCC=C(C)C (centres undefined)
[1]
  EC50: > 60 µM (not active)
[2]
  EC50: 0.324 µM (active)

## c1ccc2c(NC3C4CC5CC(C4)CC3C5)nc(N3CCOCC3)nc2c1 (centres undefined)
[1]
  EC50: > 30 µM (not active)
[2]
  EC50: 1.39 µM (active)

## CC(=O)OC[C@H]1O[C@@H](O/N=C(\C)CCN2CCc3nc(-c4ccccc4)c(-c4ccccc4)cc3C2)[C@H](OC(C)=O)[C@@H](OC(C)=O)[C@H]1OC(C)=O
Cytochrome P450 3A4
  AC50: 5.01 µM (inconclusive)

## Cc1ccccc1OCC(=O)N/N=C1\CCOc2c(C)cccc21
Cytochrome P450 3A4
  AC50: 3.16 µM (inconclusive)

## C/C(=C\c1ccc(Cl)cc1)C(C)(C)C(=O)O
Cytochrome P450 2C9
  AC50: 3.16 µM (inconclusive)

## COc1ccc(-c2nc3cnc(N4CCN(C)CC4)nc3n(-c3ccc(OC)cc3)c2=O)cc1
Cytochrome P450 1A2
  AC50: 15.8 µM (inconclusive)
Cytochrome P450 2C9
  AC50: 39.8 µM (inconclusive)

## C/C(N)=C(/C#N)C(=O)CSc1nc(-c2ccccc2)c(-c2ccccc2)o1
[1]
  EC50: > 60 µM (not active)
[2]
  EC50: 1.43 µM (active)

## COc1cc(/C=N/Nc2nc3ccccc3s2)cc([N+](=O)[O-])c1O
[3]
  EC50: 9.74 µM (active)
Streptococcus
  EC50: > 150 µM (not active)

## Cc1cccc(NC(=O)Cn2cccc2)c1
Cytochrome P450 3A4
  AC50: 22.4 µM (inconclusive)

## COc1ccc(OC)c(NC(=O)Cn2cccc2)c1
Cytochrome P450 2C9
  AC50: 31.6 µM (inconclusive)
Cytochrome P450 3A4
  AC50: 15.8 µM (inconclusive)

## COc1ncc2nc(-c3cc(F)cc(F)c3)c(=O)n(-c3ccccc3)c2n1
Cytochrome P450 1A2
  AC50: 1.26 µM (inconclusive)

## C[C@@H](C(=O)NCCF)[C@H]1C[C@]1(C)[C@H](NC(=O)OCc1ccccc1)c1ccccc1
Cytochrome P450 1A2
  AC50: 15.8 µM (inconclusive)
Cytochrome P450 2C9
  AC50: 25.1 µM (inconclusive)

## CC(=O)N1CCC[C@@]2(CCN(c3ccccc3)C2)C1
Cytochrome P450 3A4
  AC50: 25.1 µM (inconclusive)

## Cc1ccc(S(=O)(=O)N[C@H]2COC(=O)[C@H](C)COC(=O)[C@H](C)NC(=O)C/C=C\[C@H]2C)cc1
Cytochrome P450 3A4
  AC50: 3.98 µM (inconclusive)

## Cc1cc(C)cc(Nc2c([N+](=O)[O-])nn(-c3ccc4c(c3)OCCO4)[n+]2[O-])c1
[1]
  EC50: > 60 µM (not active)
[2]
  EC50: 0.16 µM (active)

## O=c1ccn([C@@H]2O[C@@H](COP(=O)(O)OP(=O)(O)O)[C@H](O)[C@@H]2O)c(=O)[nH]1
Cytochrome P450 3A4
  AC50: 0.794 µM (inconclusive)

## CCOc1ccc(C(F)(F)F)cc1NC(C)=O
Cytochrome P450 2C9
  AC50: 31.6 µM (inconclusive)

## Cc1ccc(NC(=S)N(CCCN2CCOCC2)Cc2cccnc2)cc1C
[1]
  EC50: 10.9 µM (active)
[2]
  EC50: 1.19 µM (active)

## COc1ccc(-c2cc3ncnc(O)c3s2)cc1
[3]
  EC50: 3.63 µM (active)
Streptococcus
  EC50: 17.8 µM (active)

## COC(=O)C/C=C\[C@@H](C)[C@@H](/C=N\OCC[C@H]1C=C[C@H](OC(C)=O)[C@@H](COC(C)=O)O1)NS(=O)(=O)c1ccc(C)cc1
Cytochrome P450 2C9
  AC50: 5.01 µM (inconclusive)

## CC(C)c1ccc2oc(-c3cc(N)ccc3O)nc2c1
[1]
  EC50: 10.8 µM (active)
[2]
  EC50: 2.88 µM (active)

## Cc1nc2cnc(N(C)C)nc2n(C2CC2)c1=O
Cytochrome P450 2C9
  AC50: 15.8 µM (inconclusive)

## O=[N+]([O-])c1ccc(S(=O)(=O)Nc2ccc(-c3ccc(N4CCCC4)nn3)cc2)cc1
[1]
  EC50: > 60 µM (not active)
[2]
  EC50: 0.159 µM (active)

## COc1ccc(/C=C/C(=O)Nc2cc(C)nn2-c2nc3ccccc3[nH]2)cc1
[1]
  EC50: 9.28 µM (active)
[2]
  EC50: 1.71 µM (active)

## COc1ccc(NC(=O)N2CC[C@@]3(CCCN(C(=O)c4csnn4)C3)C2)cc1
Cytochrome P450 3A4
  AC50: 31.6 µM (inconclusive)

## CSc1nsc(SC)c1NC(=O)Nc1ccccn1
Cytochrome P450 2C9
  AC50: 22.4 µM (inconclusive)

## OC(COc1ccc(OCc2ccccc2)cc1)CN1CCCCC1 (centres undefined)
[1]
  EC50: > 60 µM (not active)
[2]
  EC50: 21.4 µM (active)

## Cc1ccc(CN2CC34C=CC(O3)C(C(=O)NCc3ccco3)C4C2=O)cc1 (centres undefined)
Cytochrome P450 1A2
  AC50: 20 µM (inconclusive)

## Cc1ccc(Cn2nnc3c(O)nc(C4CCN(S(=O)(=O)c5cc(C)ccc5C)CC4)nc32)cc1
[3]
  EC50: 9.94 µM (active)
Streptococcus
  EC50: 96 µM (active)

## COc1ccc(O[C@H]2C=C[C@@H](c3ccccc3)O[C@@H]2CON=C(C)C)cc1
Cytochrome P450 3A4
  AC50: 3.98 µM (inconclusive)

## CN(c1ccc(C(=O)NC2CC3CCC2C3)cc1)S(C)(=O)=O (centres undefined)
Cytochrome P450 3A4
  AC50: 15.8 µM (inconclusive)

## Cc1ccc(S(=O)(=O)Nc2ccccc2C(=O)c2ccc(C)c(C)c2)cc1
Cytochrome P450 1A2
  AC50: 0.631 µM (inconclusive)

## COc1ccc(CC(=O)Nc2nc(-c3ccncc3)cs2)cc1
[1]
  EC50: > 60 µM (not active)
[2]
  EC50: 2.74 µM (active)

## CN(C)C(=O)c1ccc(-c2cc(N(C)Cc3ccco3)ncn2)cc1
Cytochrome P450 1A2
  AC50: 25.1 µM (inconclusive)
